Legend:
[1] = Chemical stability of compound in PBS buffer at pH 7.4 at 100 uM incubated for 48 hrs by RP-HPLC analysis; format: physicochemical; conditions: pH 7.4, 48 h
[2] = target: Neuropeptide Y receptor type 4 (Homo sapiens, UniProt P50391); assay: Displacement of [3H]UR-KK200 from human Y4R expressed in CHO cells incubated for 90 mins by microbeta scintillation counting method; format: cell-based
[3] = target: Neurotensin receptor type 1 (Homo sapiens, UniProt P30989); assay: Displacement of [3H]UR-MK300 from human NTS1R expressed in human HT-29 cells incubated for 2 hrs by scintillation counting method; format: cell-based
Chain of Neurotensin receptor type 1 (P30989 whole entry): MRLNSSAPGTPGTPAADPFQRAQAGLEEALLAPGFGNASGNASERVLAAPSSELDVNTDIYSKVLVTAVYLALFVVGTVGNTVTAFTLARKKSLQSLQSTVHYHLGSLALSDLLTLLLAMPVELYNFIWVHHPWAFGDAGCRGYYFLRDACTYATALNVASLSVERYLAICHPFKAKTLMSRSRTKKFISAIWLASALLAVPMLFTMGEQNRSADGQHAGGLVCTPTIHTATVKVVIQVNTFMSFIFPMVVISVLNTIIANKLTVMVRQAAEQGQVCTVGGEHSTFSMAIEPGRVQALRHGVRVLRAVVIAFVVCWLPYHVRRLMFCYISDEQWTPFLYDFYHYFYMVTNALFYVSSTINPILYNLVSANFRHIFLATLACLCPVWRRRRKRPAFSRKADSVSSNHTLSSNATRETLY

Chain of Neuropeptide Y receptor type 4 (P50391 whole entry): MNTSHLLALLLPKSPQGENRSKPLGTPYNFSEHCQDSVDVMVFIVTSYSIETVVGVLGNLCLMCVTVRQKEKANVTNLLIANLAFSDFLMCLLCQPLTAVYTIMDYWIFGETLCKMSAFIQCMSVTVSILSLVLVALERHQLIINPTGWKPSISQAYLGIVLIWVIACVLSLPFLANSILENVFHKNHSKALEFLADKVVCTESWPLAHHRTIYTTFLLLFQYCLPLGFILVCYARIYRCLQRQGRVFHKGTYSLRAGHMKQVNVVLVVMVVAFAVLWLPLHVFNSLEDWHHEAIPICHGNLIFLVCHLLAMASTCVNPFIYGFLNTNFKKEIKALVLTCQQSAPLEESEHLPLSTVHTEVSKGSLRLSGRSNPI

| Compound | Stability [1] | Ki [2] [nM] | Ki ([3]; read-out: Ki) [nM] | Ki ([3]; read-out: pKi (converted)) [nM] |
| --- | --- | --- | --- | --- |
| CC(=O)N[C@@H](CCCNC(=N)NC(=O)NCCCCc1cn(CCCNC(=O)CCCCCN2/C(=C/C=C/C=C/C3=[N+](C)c4ccc5c(S(=O)(=O)[O-])cc(S(=O)(=O)O)cc5c4C3(C)C)C(C)(C)c3c2ccc2c(S(=O)(=O)O)cc(S(=O)(=O)O)cc32)nn1)C(=O)N[C@@H](Cc1ccc(O)cc1)C(=O)N[C@@H](CCCNC(=N)N)C(=O)N[C@@H](CC(C)C)C(=O)N[C@@H](CCCNC(=N)N)C(=O)N[C@@H](Cc1ccc(O)cc1)C(N)=O | Stable | 33 |  |  |
| CC(C)C[C@H](NC(=O)[C@@H](NC(=O)[C@H](Cc1ccc(O)cc1)NC(=O)[C@@H]1CCCN1C(=O)[C@H](CCCNC(=N)N)NC(=O)[C@@H](N)CCCNC(=N)NC(=O)NCCCCc1cn(CCCNC(=O)CCCCCN2/C(=C/C=C/C=C/C3=[N+](C)c4ccc5c(S(=O)(=O)[O-])cc(S(=O)(=O)O)cc5c4C3(C)C)C(C)(C)c3c2ccc2c(S(=O)(=O)O)cc(S(=O)(=O)O)cc32)nn1)C(C)(C)C)C(=O)O | Stable |  | 50 |  |
| C#CCCCCNC(=O)NC(=N)NCCC[C@H](NC(=O)[C@@H](N)CCCNC(=N)N)C(=O)N1CCC[C@H]1C(=O)N[C@@H](Cc1ccc(O)cc1)C(=O)N[C@H](C(=O)N[C@@H](CC(C)C)C(=O)O)C(C)(C)C |  |  | 9.4 |  |
| C#CCCCCNC(=O)NC(=N)NCCC[C@H](N)C(=O)N[C@@H](CCCNC(=N)N)C(=O)N1CCC[C@H]1C(=O)N[C@@H](Cc1ccc(O)cc1)C(=O)N[C@H](C(=O)N[C@@H](CC(C)C)C(=O)O)C(C)(C)C |  |  | 4.2 | 4.07 |
| C#CCCCCNC(=O)NC(=N)NCCC[C@H](NC(=O)[C@H](CCCNC(=N)N)NC)C(=O)N1CCC[C@H]1C(=O)N[C@@H](Cc1ccc(O)cc1)C(=O)N[C@H](C(=O)N[C@@H](CC(C)C)C(=O)O)C(C)(C)C |  |  | 9.6 | 9.33 |

— ChEMBL document CHEMBL4342486, “An Alkyne-functionalized Arginine for Solid-Phase Synthesis Enabling "Bioorthogonal" Peptide Conjugation” (ACS Med Chem Lett, 2020)
